In patent US20080131511A1, “Pharmaceutical Composition for Treatment of Tear and Salivary Fluid Drying” (Astellas Pharma, Inc., priority 2004, published 2008):
Like-named read-outs stand apart in the source and are kept apart here.

Legend:
[1] = test system: salivary gland; assay: Salivary fluid secretion after subcutaneous bolus administration; assay type: in vivo, mouse (male Balb/c); conditions: mice
Experimental: (§1) Male Balb/c mice were used in the test.
(§2) The compound A was dissolved in physiological saline to a concentration of 1, 3, 10, 30 or 100 mg/5 ml, and 5 ml/kg of the drug solution was administered under the dorsal skin. Secreted amounts of salivary and tear fluid were measured just before the administration of compound A and 10, 20, 30, 40 and 50 minutes after the administration. The sweating action was measured 10 minutes after the administration. Also, the growth acceleration action was measured 6 hours after the administration.
as §2, with “Pilocarpine was dissolved” for “The compound A was dissolved”, “concentration of 0.03, 0.1, 0.3, 1, 3 or 10 mg/5 ml, or cevimeline to a concentration of 0.3, 1, 3,” for “concentration of 1, 3,”, “administration of pilocarpine or cevimeline and 10,” for “administration of compound A and 10,”
(§3) The mouth of a mouse was wiped with a cotton ball whose weight had been measured in advance, and the incremental weight was used as the amount of salivary fluid. Also at the same time, a thread for tear fluid measurement (Zone Quick; Menicon) used on the Schirmer test was inserted into the lower eyelid conjunctival sac, and the length of colored part was measured and used as the amount of tear fluid. From the measurement results, area under the secreted amount-versus-time curve (AUC) was calculated.
(§4) All of the test results were expressed as fold increases of the reactions of the drug-administered group versus those of the vehicle-administered group, and comparison between the drug-administered groups and the vehicle-administered group was carried out using Dunnett's t-test. P<0.05 was considered significant. Results

[2] = test system: salivary gland; assay: Salivary fluid secretion during subcutaneous continuous administration (osmotic pump); assay type: in vivo, mouse (male Balb/c); conditions: mice; for Salivary fluid: AUC of secreted amount
Experimental: as §1
(§5) The compound A was dissolved in physiological saline to a concentration of 0.625, 1.25, 2.5, 5.0, 10 or 20 mg/200 μl, and filled each pump (Alzet mini-osmotic pump 2001D, 8 μl/h, 1 day; DURECT Corporation) with about 200 μl portions It means, that is, each pump releases at a rate of 0.025, 0.05, 0.1, 0.2, 0.4 or 0.8 mg compound A/h, respectively. About 5 mm of dorsal epidermis of a mouse anesthetized with diethyl ether was incised, the osmotic pump already filled with the compound A was subcutaneously implanted, and then the skin was stitched. Secreted amounts of salivary and tear fluid and sweating were periodically measured from just before the implantation of pump until 32 hours after the administration. The ornithine decarboxylase activity was measured 10 hours after the implantation.
(§6) Pilocarpine was dissolved in physiological saline to a concentration of 0.039, 0.078, 0.16 or 0.31 mg/200 μl, or cevimeline to a concentration of 0.16, 0.31, 0.63 or 1.3 mg/200 μl, and filled the osmotic pump (Alzet mini-osmotic pump 2001 D, 8 μl/h, 1 day; DURECT Corporation) with about 200 μl portions. It means, that is, each pump releases at a rate of 0.00156, 0.00312, 0.0064 or 0.0124 mg/h (pilocarpine) or 0.0064, 0.0124, 0.0252 or 0.05 mg/h (cevimeline). About 5 mm of dorsal epidermis of a mouse anesthetized with diethyl ether was incised, the osmotic pump already filled with pilocarpine or cevimeline was subcutaneously implanted, and then the skin was stitched. Secreted amounts of salivary and tear fluid and sweating were periodically measured from just before the implantation of pump until 32 hours after the administration. The ornithine decarboxylase activity was measured 10 hours after the implantation.
as §3, §4

[3] = test system: ornithine decarboxylase (ODC) activity of extra-orbital lacrimal gland; assay: Ornithine decarboxylase activity of extra-orbital lacrimal gland, subcutaneous continuous administration; assay type: in vivo, mouse (male Balb/c); conditions: mice, ODC activity 10 hours after implantation
Experimental: as §1, §5, §6
Thus, it can be easily analogized that the ODC activity becomes a useful index of cell growth and function of the exocrine gland. Accordingly, the ability of each drug to activate glandular tissue was evaluated by measuring ODC activity of parotid salivary gland and extra-orbital lacrimal gland.
The amount of ^14CO2 formed from L-^14C-ornithine was used as the index of ODC activity.
A mouse anesthetized with diethyl ether was sacrificed by bleeding, and left and right parotid salivary glands and extra-orbital lacrimal glands were isolated. After removing the attached connective tissue and fat, the isolated glandular tissues homogenized in 1.5 ml of a homogenate buffer (25 mM Tris-HCl buffer (pH 7.4) containing 0.1 mM ethylenediaminetetraacetic acid, 0.4 mM pyridoxal phosphate, 5 mM dithiothreitol and 0.1% Brij 35®) using a Potter type homogenizer and then centrifuged at 4° C., 15,000 g for 30 minutes, and the supernatant was used as the enzyme fraction. Reaction of the enzyme and substrate was carried out by adding 100 μl of a substrate solution (the homogenate buffer containing 300 μM DL-ornithine and 5 μCi L-^14C-ornithine) to 900 μl of the enzyme liquid whose protein concentration had been adjusted to 2.5 mg/ml and incubating at 37° C. for 1 hour in a sealed tube, and the reaction was terminated by the addition of 100 μl of 2 M H2SO4. The ^14CO2 generated by the reaction was captured by 150 μl of 1 N NaOH soaked in a glass filter. Radioactivity of the ^14CO2 captured on the glass filter was detected using a liquid scintillation counter. The enzyme activity (pmol ^14CO2/mg protein/hour) was calculated from the measured results.
as §4

[4] = Phase I study, single oral administration: pharmacokinetics in plasma; assay type: in vivo, human; conditions: for Tmax / AUC / half-life / Cmax: male
Experimental: The compound A was orally administered once to healthy male adult volunteers, and saliva secretion action and pharmacokinetics were evaluated.
Drug administration to the volunteers was carried out by a blind method.
In order to observe the volunteers carefully, saliva quantity, sweating and pharmacokinetics (concentrations of unchanged compound A in plasma and urine) were periodically measured.

[5] = s.c. osmotic pump 1.25 mg (0.05 mg/h)
[6] = s.c. osmotic pump 2.5 mg (0.1 mg/h)
[7] = s.c. osmotic pump 5 mg (0.2 mg/h)
[8] = s.c. osmotic pump 10 mg (0.4 mg/h)
[9] = human plasma, single oral 10 mg
[10] = human plasma, single oral 20 mg
[11] = human plasma, single oral 40 mg
[12] = human plasma, single oral 60 mg

**Q.** With C=C1CC2(CCN(C)CC2)O[C@H]1C [compound A, (−)-(S)-2,8-dimethyl-3-methylene-1-oxa-8-azaspiro[4.5]decane] as the compound, how does the Salivary fluid ([1]; s.c. bolus 1 mg/kg, 10 minutes after administration) read?
**A.** 1.5 ± 0.10 fold increase vs. the vehicle group

**Q.** And the Salivary fluid ([1]; s.c. bolus 3 mg/kg, 10 minutes after administration)?
**A.** 1.8 ± 0.13 fold increase vs. the vehicle group

**Q.** What about the Salivary fluid ([1]; s.c. bolus 10 mg/kg, 10 minutes after administration) of the same compound?
**A.** 3.3 ± 1.1 fold increase vs. the vehicle group

**Q.** And the “dose at which statistically significant acceleration of salivary fluid secretion was attained” value ([1]; s.c. bolus, 10 minutes after administration)?
**A.** 10 mg/kg

**Q.** And the “time after administration at which secretion amount of salivary and tear fluid reached maximum” value ([1]; s.c. bolus, every dose)?
**A.** 10 min

**Q.** And the “dose at which salivary fluid secretion acceleration action reached maximum” value ([2]; s.c. continuous administration)?
**A.** 5 mg

**Q.** What about the “time after osmotic pump implantation at which secreted amount of tear and salivary fluid became maximum” value ([2]; s.c. continuous administration) of the same compound?
**A.** 10 h

**Q.** And the “time after osmotic pump implantation at which secreted amount of tear and salivary fluid started to increase” value ([2]; s.c. continuous administration)?
**A.** 4 h

**Q.** And the “time after which secretion acceleration action almost disappeared” value ([2]; s.c. continuous administration)?
**A.** 32 h

**Q.** And the “time until which increased secretion of tear and salivary fluid continued” value ([2]; s.c. continuous administration)?
**A.** 26 h

**Q.** What about the “dose showing statistically significant salivary fluid secretion acceleration” value ([2]; s.c. continuous administration, cumulative quantity vs vehicle group) of the same compound?
**A.** ≥ 2.5 mg

**Q.** What about the Salivary fluid ([2]; s.c. osmotic pump 0.63 mg (0.025 mg/h)) of the same compound?
**A.** 0.84 ± 0.11 fold increase vs. the vehicle group

**Q.** What about the Salivary fluid [2, 5] of the same compound?
**A.** 1.4 ± 0.11 fold increase vs. the vehicle group

**Q.** What about the Salivary fluid [2, 6] of the same compound?
**A.** 2.1 ± 0.13 fold increase vs. the vehicle group

**Q.** What about the Salivary fluid [2, 7] of the same compound?
**A.** 2.8 ± 0.21 fold increase vs. the vehicle group

**Q.** What about the Salivary fluid [2, 8] of the same compound?
**A.** 3.4 ± 0.35 fold increase vs. the vehicle group

**Q.** What about the “Glandular cell growth Lacrimal gland” value [3, 5] of the same compound?
**A.** 3.3 ± 1.2 fold increase vs. the vehicle group

**Q.** And the “Glandular cell growth Lacrimal gland” value [3, 6]?
**A.** 6.7 ± 0.90 fold increase vs. the vehicle group

**Q.** And the “Glandular cell growth Lacrimal gland” value [3, 7]?
**A.** 9.2 ± 1.4 fold increase vs. the vehicle group

**Q.** What about the “Glandular cell growth Lacrimal gland” value [3, 8] of the same compound?
**A.** 7.1 ± 1.2 fold increase vs. the vehicle group

**Q.** And the “AUC0→∞” value ([4]; human plasma, single oral 5 mg)?
**A.** 117.6 ± 41.5 ng/h/mL

**Q.** What about the “AUC0→∞” value [4, 9] of the same compound?
**A.** 180.5 ± 77.6 ng/h/mL

**Q.** And the “AUC0→∞” value [4, 10]?
**A.** 410.1 ± 106.8 ng/h/mL

**Q.** And the “AUC0→∞” value [4, 11]?
**A.** 1,010.1 ± 323.2 ng/hr/ml

**Q.** What about the “AUC0→∞” value [4, 12] of the same compound?
**A.** 1,482.3 ± 371.1 ng/hr/ml

**Q.** What about the Tmax ([4]; plasma, oral, human test result which used general tablets containing the compound A) of the same compound?
**A.** ~2 h

**Q.** What about the AUC ([4]; plasma, oral, human, 20 mg administration) of the same compound?
**A.** 410 ng·h/mL

**Q.** What about the half-life ([4]; plasma, oral, human, 20 mg administration, read-out: T1/2 (converted)) of the same compound?
**A.** 3.38 h

**Q.** And the AUC ([4]; plasma, human, 40 mg oral administration)?
**A.** 1010 ng·h/mL

**Q.** And the Cmax ([4]; plasma, human, oral 10 mg)?
**A.** 35.3 ± 10.5 ng/mL

**Q.** What about the Cmax ([4]; plasma, human, oral 40 mg) of the same compound?
**A.** 151 ± 24.1 ng/mL

**Q.** What about the Cmax ([4]; human plasma, single oral 5 mg) of the same compound?
**A.** 19.8 ± 5.2 ng/mL

**Q.** What about the Tmax ([4]; human plasma, single oral 5 mg) of the same compound?
**A.** 1.5 ± 0.55 h

**Q.** What about the half-life ([4]; human plasma, single oral 5 mg, read-out: T½ (converted)) of the same compound?
**A.** 3.89 ± 0.81 h

**Q.** What about the Tmax [4, 9] of the same compound?
**A.** 1.17 ± 0.41 h

**Q.** What about the half-life ([4]; human plasma, single oral 10 mg, read-out: T½ (converted)) of the same compound?
**A.** 3.42 ± 0.67 h

**Q.** What about the Cmax [4, 10] of the same compound?
**A.** 68.1 ± 13 ng/mL

**Q.** And the Tmax [4, 10]?
**A.** 2 ± 0.63 h

**Q.** What about the half-life ([4]; human plasma, single oral 20 mg, read-out: T½ (converted)) of the same compound?
**A.** 3.88 ± 0.67 h

**Q.** And the Tmax [4, 11]?
**A.** 1.67 ± 0.82 h

**Q.** What about the half-life ([4]; human plasma, single oral 40 mg, read-out: T½ (converted)) of the same compound?
**A.** 3.78 ± 0.59 h

**Q.** What about the Cmax [4, 12] of the same compound?
**A.** 266 ± 25.2 ng/mL

**Q.** And the Tmax [4, 12]?
**A.** 1.6 ± 0.55 h

**Q.** And the half-life ([4]; human plasma, single oral 60 mg, read-out: T½ (converted))?
**A.** 3.2 ± 0.79 h
